Test results as given in patent US20240208963A1, “CRYSTALLINE MELANOCORTIN SUBTYPE-2 RECEPTOR (MC2R) ANTAGONIST” (Crinetics Pharmaceuticals, Inc., priority 2022, published 2024).
Values after ≈ are worked out from the molar mass of the structure shown. “Also recorded” adds a separate entry of the source. Structures can show the parent of a compound that is named as a salt. Where two headings read alike, the source gives them in different places. Marks after values point to notes of the source that are not given here.

How the values were obtained:
[1] = Salt screening XRPD stages: drying and overnight humidity exposure; conditions: for Form stability upon drying (XRPD): dried under vacuum at 50° C. for at least 3 h
Method: XRPD analysis is typically done in three stages: 1) Wet: XRPD of the wet cake is done for all samples whenever solids appropriate for sampling were observed. 2) Dry: Unique solids are then left on XRPD plates and dried under vacuum at 50° C. for at least 3 h. XRPD of unique dry solids are then collected. 3) Humid: Solids are then exposed to >95% relative humidity overnight and XRPD on resulting solids is collected. The humid environment is generated by placing a beaker of saturated potassium sulfate in water in a sealed container. This procedure is not carried out for any amorphous solids obtained. All XRPD patterns are compared to counter ion XRPD patterns and known free molecule patterns.
A qualitive humidity exposure test was performed by exposing approximately 10 mg of the maleate to 80% RH overnight.

[2] = Solubility of solid state forms in solvents (gravimetric or solvent addition); type: physicochemical
Method: The solubility of certain solid state forms of Compound I was determined in various solvents by either gravimetric solubility or solvent addition.
About 25 mg of compound was weighed into vials. Approximately 5 vol. (0.125 mL) of solvent was added to the solids and the mixtures stirred at the designated temperature (RT or 50° C.). Solutions were noted and an additional 0.125 mL of solvent was added to the slurries. […] If a thicker slurry was noted, 0.25 mL of solvent was added (total volume 0.5 mL). If a thick slurry was again noted, an additional 0.25 mL of solvent was added (total volume 0.75 mL). After stirring for 2 days, the slurries were centrifuged, the supernatant was collected into preweighed vials, and the solvent evaporated at 50° C. (ambient pressure) without stirring. The vials containing the solid residues were dried in a vacuum oven at 50 C, 10^−2-10^−1 Torr, for 3 h before weighing again to determine the mass of solid that was dissolved in the supernatant (i.e. mg solid/mL solvent).
About 20 mg of compound was weighed into vials. Solvent was added in aliquots and stirred at the designated temperature until complete dissolution was observed. This measurement gave a solubility range.

[3] = Form stability at ambient conditions for one week (XRPD); type: physicochemical; conditions: maleate
Description: Some of the samples generated in the antisolvent crystallization experiments were mixtures of Pattern B, Pattern C, and Pattern D. These samples were left at ambient conditions for one week, then analyzed again by XRPD.
Pure Pattern B was generated in the antisolvent crystallization with MIBK and heptane. […] The solids were scraped from the XRPD plate and used for simultaneous TGA/DSC analysis. […] After the solids required for the TGA/DSC analysis were transferred to the pan, the remainder of the solids were re-pressed to the XRPD sample plate and analyzed again.

[4] = Solubility in simulated fluids and water; type: physicochemical; conditions: 37° C., 30 min
Method: Calibration samples for solubility in simulated fluids were prepared with freebase Compound I.
Solubility in simulated fluids were studied with the mandelate and maleate solids. The simulated fluids FaSSIF (fasted-state intestinal), FaSSGF (fasted-state gastric), and FeSSIF (fed-state intestinal) were removed from the refrigerator, warmed to room temperature, and the pH of each was measured. Between 1.9 and 2.0 mg of each salt was weighed into four vials and 1 mL of each fluid was added, including water. Stir bars (10 mm) were added to the vials and the vials were stirred at 37° C. After 30 mi (mandelate samples) or 1 h (maleate samples), the pH of each solution was measured, then 400 μL of each was removed and syringe filtered with 0.45 µm syringe filters. Approximately 300 μL of the recovered filtrate was diluted 5× with diluent and injected for HPLC analysis. The remainder of the samples in the vials were allowed to stir overnight. After 24 h stirring at 37° C., samples were filtered and diluted as before, and injected for analysis.

[5] = Stability of crystalline forms at 40° C. and 75% relative humidity (XRPD, HPLC purity)
Method: Approximately 10 mg of the Crystalline Pattern D of Compound I Maleate, 20 mg of the Crystalline Pattern C of Compound I Maleate, and 10 mg of the Crystalline Pattern E of Compound I Mandelate were weighed into open 4 mL vials that were placed into a 20 mL vial containing a saturated NaCl solution. The vial was sealed and kept at 40° C. for 7 days, creating an atmosphere at 75% relative humidity in the system. After 7 days, the materials were sampled and plated for XRPD analysis.
The stability test was repeated on Patterns C and D of Compound I Maleate for 11 days.

[6] = Dynamic vapor sorption (DVS); type: physicochemical
Method: DVS was performed using a DVS Intrinsic 1. The sample (20-25 mg) was loaded into a sample pan, suspended from a microbalance and exposed to a humidified stream of nitrogen gas. The sample was held for a minimum of 5 min at each level and only progressed to the next humidity level if there was <0.002% change in weight between measurements (interval: 60 s) or 240 min had elapsed. The following program was used: • 1. Equilibration at 50% RH • 2. 50% to 2%. (50%, 40%, 30%, 20%, 10%, and 2%) • 3. 2% to 95% (2%, 10%, 20%, 30%, 40%, 50%, 60%, 70%, 80%, 90%, and 95%) • 4. 95% to 2% (95%, 80%, 70%, 60%, 50%, 40%, 30%, 20%, 10%, and 2%) • 5. 2% to 50% (2%, 10%, 20%, 30%, 40%, and 50%)

[7] = 40° C., 75% relative humidity, 7 days

CCOc1ccccc1-c1ccc(N2CCN(C(=O)C3(C(F)(F)F)CCC3)C[C@H]2CC)c(C(=O)N[C@@H]2CN3CCC2CC3)n1 [Compound I Maleate, N-[(3S)-1-azabicyclo[2.2.2]octan-3-yl]-6-(2-ethoxyphenyl)-3-[(2R)-2-ethyl-4-[1-(trifluoromethyl)-cyclobutanecarbonyl]piperazin-1-yl]pyridine-2-carboxamide maleate]
Mass gain in qualitative humidity exposure test ([1]; 80% RH overnight, approximately 10 mg): No detectable mass gain | solubility ([2]; EtOAc, 50° C., maleate): 34 mg/mL | solubility ([2]; EtOAc, RT, maleate): 21 mg/mL | solubility ([2]; EtOH, RT, maleate): >200 mg/mL | solubility ([2]; IPAc, 50° C., maleate): 13 mg/mL | solubility ([2]; IPAc, RT, maleate): 8 mg/mL | solubility ([2]; MEK, RT, maleate): >200 mg/mL | solubility ([2]; MIBK, 50° C., maleate): 71 mg/mL | solubility ([2]; MIBK, RT, maleate): 49 mg/mL | solubility ([2]; MeOH, RT, maleate): >200 mg/mL | solubility ([2]; MtBE, 50° C., maleate): 4 mg/mL | solubility ([2]; MtBE, RT, maleate): 4 mg/mL | solubility ([2]; THF, RT, maleate): >200 mg/mL | solubility ([2]; acetone, RT, maleate): >200 mg/mL | solubility ([2]; cyclohexane, 50 °C, organic solvent or mixture, thermodynamic from solid, cyclohexane, 50° C., read-out: Solubility): 3 mg/mL | solubility ([2]; cyclohexane, organic solvent or mixture, thermodynamic from solid, cyclohexane, RT, read-out: Solubility): < 3 mg/mL | solubility ([2]; n-heptane, 50° C., maleate): 3 mg/mL | solubility ([2]; n-heptane, RT, maleate): <3 mg/mL

CCOc1ccccc1-c1ccc(N2CCN(C(=O)C3(C(F)(F)F)CCC3)C[C@H]2CC)c(C(=O)N[C@@H]2CN3CCC2CC3)n1.O=C(O)/C=C\C(=O)O [Pattern B, N-[(3S)-1-azabicyclo[2.2.2]octan-3-yl]-6-(2-ethoxyphenyl)-3-[(2R)-2-ethyl-4-[1-(trifluoromethyl)-cyclobutanecarbonyl]piperazin-1-yl]pyridine-2-carboxamide maleate]
Form conversion by XRPD at ambient conditions [3]: converted to Pattern C; also recorded: some low intensity peaks associated with Pattern C | Form stability upon drying (XRPD) [1]: mostly converts to Pattern C

CCOc1ccccc1-c1ccc(N2CCN(C(=O)C3(C(F)(F)F)CCC3)C[C@H]2CC)c(C(=O)N[C@@H]2CN3CCC2CC3)n1 [Compound I, N-[(3S)-1-azabicyclo[2.2.2]octan-3-yl]-6-(2-ethoxyphenyl)-3-[(2R)-2-ethyl-4-[1-(trifluoromethyl)-cyclobutanecarbonyl]piperazin-1-yl]pyridine-2-carboxamide]
solubility ([2]; EtOAc, RT, listed as Amorphous free base): >500^a mg/mL | solubility ([2]; EtOH, RT, listed as Amorphous free base): >500^a mg/mL | solubility ([2]; IPA:water (1:1 vol.), aqueous with cosolvent or surfactant or cyclodextrin, thermodynamic from solid, IPA:water (1:1 vol.), RT, read-out: Solubility): 167 to 250 mg/mL (≈ 272 to 407 mM) | solubility ([2]; MIBK, RT, listed as Amorphous free base): >500^a mg/mL | solubility ([2]; MtBE, RT, listed as Amorphous free base): >500^a mg/mL | solubility ([2]; acetone, RT, listed as Amorphous free base): >500^a mg/mL | Solubility (in words) ([2]; all solvents tested except heptane and IPA:water (1:1 vol.)): freely soluble | Solubility (in words) ([2]; heptane): low solubility | solubility ([2]; n-heptane, RT, listed as Amorphous free base): <26 mg/mL | solubility ([2]; toluene, organic solvent or mixture, thermodynamic from solid, toluene, RT, read-out: Solubility): > 500 mg/mL

N-[(3S)-1-azabicyclo[2.2.2]octan-3-yl]-6-(2-ethoxyphenyl)-3-[(2R)-2-ethyl-4-[1-(trifluoromethyl)-cyclobutanecarbonyl]piperazin-1-yl]pyridine-2-carboxamide mandelate [mandelate Pattern E]
Sample pH ([4]; FaSSGF (initial pH 1.49)): 1.53 | Sample pH ([4]; FaSSIF (initial pH 6.35)): 6.41 | Sample pH ([4]; FeSSIF (initial pH 4.83)): 4.89 | Stability after humidity exposure (XRPD, deliquescence) ([1]; >90% relative humidity overnight): no deliquescence or loss of crystallinity | Form stability upon drying (XRPD) [1]: stable | Change by XRPD after storage [5, 7]: No visible change | Degradation by HPLC purity analysis after storage [5, 7]: no degradation | Stability on storage (in words) ([5]; over a week at 40° C. and 75% RH): stable | Hygroscopicity (in words) ([6]; DVS): moderately hygroscopic | Change by XRPD following the DVS analysis ([6]; after DVS from 2 to 95% RH): No change | Reversible mass gain (DVS) ([6]; from 2 to 95% relative humidity): 5.68 wt. % | Behaviour at high humidity ([6]; high humidity): began to convert to amorphous
